According to ChEMBL document CHEMBL2424643, “An efficient synthesis, characterization, and antimicrobial screening of tetrahydropyrimidine derivatives” (2013):
≈ marks a conversion by molar mass, not a printed value.

Key:
Assay type in all cases: functional
[1] = test system: Aspergillus clavatus; assay: Antifungal activity against Aspergillus clavatus MTCC 1323 by two-fold serial dilution method
[2] = test system: Aspergillus niger; assay: Antifungal activity against Aspergillus niger MTCC 282 by two-fold serial dilution method
[3] = test system: Candida albicans; assay: Antifungal activity against Candida albicans MTCC 227 by two-fold serial dilution method
[4] = test system: Staphylococcus aureus; assay: Antibacterial activity against Staphylococcus aureus MTCC 96 by two-fold serial dilution method
[5] = test system: Escherichia coli; assay: Antibacterial activity against Escherichia coli MTCC 443 by two-fold serial dilution method
[6] = test system: Streptococcus pyogenes; assay: Antibacterial activity against Streptococcus pyogenes MTCC 442 by two-fold serial dilution method
[7] = test system: Pseudomonas aeruginosa; assay: Antibacterial activity against Pseudomonas aeruginosa MTCC 1688 by two-fold serial dilution method

| Molecule | MIC [1] [µM] | MIC [2] [µM] | MIC [3] [µM] | MIC [4] [µM] | MIC [5] [µM] | MIC [6] [µM] | MIC [7] [µM] |
| --- | --- | --- | --- | --- | --- | --- | --- |
| NYSTATIN | 100 | 100 | 100 | – | – | – | – |
| CC1=C(C(=O)Nc2ccc(C)cc2C)C(c2ccc(Cl)cc2)NC(=S)N1 (configuration not stated) | 3250 (≈ 1250 µg/mL) | 3250 (≈ 1250 µg/mL) | 3250 (≈ 1250 µg/mL) | 812 (≈ 313 µg/mL) | 812 (≈ 313 µg/mL) | 649 (≈ 251 µg/mL) | 649 (≈ 251 µg/mL) |
| CC1=C(C(=O)Nc2ccc(C)cc2C)C(c2cccc([N+](=O)[O-])c2)NC(=S)N1 (configuration not stated) | 3250 (≈ 1290 µg/mL) | 3250 (≈ 1290 µg/mL) | 1620 (≈ 644 µg/mL) | 812 (≈ 322 µg/mL) | 649 (≈ 257 µg/mL) | 649 (≈ 257 µg/mL) | 812 (≈ 322 µg/mL) |
| CC1=C(C(=O)Nc2ccc(C)cc2C)C(c2ccccc2[N+](=O)[O-])NC(=S)N1 (configuration not stated) | 3250 (≈ 1290 µg/mL) | 3250 (≈ 1290 µg/mL) | 3250 (≈ 1290 µg/mL) | 649 (≈ 257 µg/mL) | 649 (≈ 257 µg/mL) | 406 (≈ 161 µg/mL) | 649 (≈ 257 µg/mL) |
| CC1=C(C(=O)Nc2ccc(C)cc2C)C(c2cccc(Cl)c2)NC(=S)N1 (configuration not stated) | 3250 (≈ 1250 µg/mL) | 3250 (≈ 1250 µg/mL) | 1620 (≈ 627 µg/mL) | 812 (≈ 313 µg/mL) | 325 (≈ 125 µg/mL) | 649 (≈ 251 µg/mL) | 649 (≈ 251 µg/mL) |
| COc1ccc(C2NC(=S)NC(C)=C2C(=O)Nc2ccc(C)cc2C)cc1 (configuration not stated) | 3250 (≈ 1240 µg/mL) | 3250 (≈ 1240 µg/mL) | 3250 (≈ 1240 µg/mL) | 203 (≈ 77.4 µg/mL) | 203 (≈ 77.4 µg/mL) | 406 (≈ 155 µg/mL) | 325 (≈ 124 µg/mL) |
| CC1=C(C(=O)Nc2ccc(C)cc2C)C(c2ccccc2O)NC(=S)N1 (configuration not stated) | 3250 (≈ 1190 µg/mL) | 3250 (≈ 1190 µg/mL) | 3250 (≈ 1190 µg/mL) | 812 (≈ 298 µg/mL) | 325 (≈ 119 µg/mL) | 325 (≈ 119 µg/mL) | 406 (≈ 149 µg/mL) |
| O=C(N[C@H](CO)[C@H](O)c1ccc([N+](=O)[O-])cc1)C(Cl)Cl [CHLORAMPHENICOL] | – | – | – | 50 (≈ 16.2 µg/mL) | 50 (≈ 16.2 µg/mL) | 50 (≈ 16.2 µg/mL) | 50 (≈ 16.2 µg/mL) |
| CC1=C(C(=O)Nc2ccc(C)cc2C)C(c2cccc(O)c2)NC(=S)N1 (configuration not stated) | 3250 (≈ 1190 µg/mL) | 3250 (≈ 1190 µg/mL) | 1620 (≈ 597 µg/mL) | 649 (≈ 239 µg/mL) | 812 (≈ 298 µg/mL) | 203 (≈ 74.6 µg/mL) | 649 (≈ 239 µg/mL) |
| CC1(C)S[C@@H]2[C@H](NC(=O)[C@H](N)c3ccccc3)C(=O)N2[C@H]1C(=O)O [AMPICILLIN] | – | – | – | 250 (≈ 87.4 µg/mL) | 100 (≈ 34.9 µg/mL) | 100 (≈ 34.9 µg/mL) | 100 (≈ 34.9 µg/mL) |
| CC1=C(C(=O)Nc2ccc(C)cc2C)C(c2ccc([N+](=O)[O-])cc2)NC(=S)N1 (configuration not stated) | 3250 (≈ 1290 µg/mL) | 3250 (≈ 1290 µg/mL) | 1620 (≈ 644 µg/mL) | 812 (≈ 322 µg/mL) | 406 (≈ 161 µg/mL) | 812 (≈ 322 µg/mL) | 812 (≈ 322 µg/mL) |
